From ChEMBL document CHEMBL5053549, “Discovery of Potent and Novel Dual PARP/BRD4 Inhibitors for Efficient Treatment of Pancreatic Cancer” (J Med Chem, 2021)
Activity calls are given as the source filed them. The calls are words filed in the database; no cut-off is given here.

What was measured:
SW1990 [1] = assay: Induction of apoptosis in human SW1990 cells assessed as necrotic cells at 2 uM after 4 days by Annexin V-FITC and propidium iodide staining based flow cytometry (reference value: 1.89%); format: functional; conditions: time 4 day
SW1990 [2] = assay: Inhibition of homologous recombinant repair in human SW1990 cells assessed as reduction in Rad51 expression at 1 to 2 uM after 4 days by Western blot analysis; format: functional, cell-based; conditions: dose 1-2 µM, time 4.0 day
Mus musculus [3] = assay: Inhibition of homologous recombinant repair in human SW1990 cells xenografted in BALB/c mouse assessed as reduction in olaparib-induced FOXM1 expression at 15 mg/kg, ip after 4 days by immunohistochemical analysis; format: functional, organism-based; conditions: time 4.0 day
SW1990 [4] = assay: Induction of autophagy in human SW1990 cells assessed as reduction in p62 expression at 1 to 2 uM incubated for 4 days by immunofluorescence assay; format: functional, cell-based; conditions: dose 1-2 µM, time 4.0 day
Mus musculus [5] = assay: Effect on cell cycle progression in human SW1990 cells xenografted in BALB/c mouse assessed as reduction in CCND1 expression at 45 mg/kg, ip after 4 days by Q-PCR analysis; format: functional, organism-based; conditions: time 4.0 day
[6] = target: Bromodomain testis-specific protein (Homo sapiens, UniProt Q58F21); assay: Inhibition of recombinant BRDT BD1 (unknown origin) incubated for 120 mins by TR-FRET assay
SW1990 [7] = assay: Inhibition of homologous recombinant repair in human SW1990 cells assessed as reduction in c-Myc expression at 1 to 2 uM after 4 days by Q-PCR analysis; format: functional, cell-based; conditions: dose 1-2 µM, time 4.0 day
SW1990 [8] = assay: Inhibition of homologous recombinant repair in human SW1990 cells assessed as reduction in BRCA1 expression at 1 to 2 uM after 4 days by Western blot analysis; format: functional, cell-based; conditions: dose 1-2 µM, time 4.0 day
SW1990 [9] = assay: Induction of cell cycle arrest in human SW1990 cells assessed as accumulation of cells at G2/M phase at 2 uM incubated for 4 days by propidium iodide staining based flow cytometry (reference value: 5.89%); format: functional; conditions: time 4 day
[10] = target: Bromodomain-containing protein 4 (Homo sapiens, UniProt O60885); assay: Inhibition of recombinant BRD4 BD1 (unknown origin) incubated for 120 mins by TR-FRET assay
SW1990 [11] = assay: Induction of autophagy in human SW1990 cells assessed as increase in Beclin1 expression at 1 to 2 uM incubated for 4 days by immunofluorescence assay; format: functional, cell-based; conditions: dose 1-2 µM, time 4.0 day
SW1990 [12] = assay: Induction of autophagy in human SW1990 cells xenografted in BALB/c mouse assessed as decrease in p62 expression at 45 mg/kg, ip after 4 days by Q-PCR analysis; format: functional, organism-based; conditions: time 4.0 day
SW1990 [13] = assay: Induction of cell cycle arrest in human SW1990 cells assessed as accumulation of cells at G2/M phase at 1 uM incubated for 4 days by propidium iodide staining based flow cytometry (reference value: 5.89%); format: functional; conditions: time 4 day
SW1990 [14] = assay: Induction of autophagy in human SW1990 cells xenografted in BALB/c mouse assessed as increase in ATG5 expression at 45 mg/kg, ip after 4 days by Q-PCR analysis; format: functional, organism-based; conditions: time 4.0 day
SW1990 [15] = assay: Antitumor activity against human SW1990 cells xenografted in BALB/c mouse assessed as inhibition of Ki67 expression at 45 mg/kg, ip administered for 28 consecutive days by immunohistochemical analysis; format: functional, organism-based; conditions: time 28.0 day
SW1990 [16] = assay: Induction of cell cycle arrest in human SW1990 cells assessed as accumulation of cells at G0/G1 phase at 1 uM incubated for 4 days by propidium iodide staining based flow cytometry (reference value: 64.79%); format: functional; conditions: time 4 day
SW1990 [17] = assay: Induction of autophagy in human SW1990 cells assessed as increase in pAMPKalpha expression at 1 to 2 uM incubated for 4 days by immunofluorescence assay; format: functional, cell-based; conditions: dose 1-2 µM, time 4.0 day
SW1990 [18] = assay: Induction of autophagy in human SW1990 cells assessed as increase in pULK1 expression at 1 to 2 uM incubated for 4 days by immunofluorescence assay; format: functional, cell-based; conditions: dose 1-2 µM, time 4.0 day
SW1990 [19] = assay: Inhibition of homologous recombinant repair in human SW1990 cells assessed as reduction in Rad51 expression at 1 to 2 uM after 4 days by Q-PCR analysis; format: functional, cell-based; conditions: dose 1-2 µM, time 4.0 day
SW1990 [20] = assay: Induction of autophagy in human SW1990 cells assessed as reduction in Bcl-2 expression at 1 to 2 uM incubated for 4 days by immunofluorescence assay; format: functional, cell-based; conditions: dose 1-2 µM, time 4.0 day
SW1990 [21] = assay: Induction of autophagy in human SW1990 cells xenografted in BALB/c mouse assessed as increase in beclin1 expression at 45 mg/kg, ip after 4 days by Q-PCR analysis; format: functional, organism-based; conditions: time 4.0 day
SW1990 [22] = assay: Induction of DNA damage in human SW1990 cells assessed as tail DNA at 1 to 4 uM incubated for 4 days in presence of 3 uM Olaparib by comet assay; format: functional, cell-based; conditions: dose 1-4 µM, time 4.0 day
Mus musculus [23] = assay: Effect on cell cycle progression in human SW1990 cells xenografted in BALB/c mouse assessed as reduction in CDK6 expression at 45 mg/kg, ip after 4 days by Western blot analysis; format: functional, organism-based; conditions: time 4.0 day
SW1990 [24] = assay: Induction of cell cycle arrest in human SW1990 cells assessed as accumulation of cells at S phase at 1 uM incubated for 4 days in presence of 3 uM Olaparib by propidium iodide staining based flow cytometry (reference value: 29.32%); format: functional; conditions: time 4 day
Mus musculus [25] = assay: Toxicity in BALB/c mouse xenografted with human SW1990 cells assessed as spleen damage at 15 mg/kg, ip administered for 28 consecutive days in presence of 45 mg/kg Olaparib; format: organism-based; conditions: in vivo, 672 h, time 28 day
SW1990 [26] = assay: Induction of DNA damage in human SW1990 cells assessed as tail DNA at 4 uM incubated for 4 days by comet assay; format: functional, cell-based; conditions: time 4.0 day
Mus musculus [27] = assay: Toxicity in BALB/c mouse xenografted with human SW1990 cells assessed as effect on body weight at 15 mg/kg, ip administered for 28 consecutive days; format: organism-based; conditions: in vivo, 672 h, time 28 day
SW1990 [28] = assay: Induction of apoptosis in human SW1990 cells assessed as necrotic cells at 4 uM after 4 days by Annexin V-FITC and propidium iodide staining based flow cytometry (reference value: 1.89%); format: functional; conditions: time 4 day
SW1990 [29] = assay: Induction of cell cycle arrest in human SW1990 cells assessed as accumulation of cells at G0/G1 phase at 4 uM incubated for 4 days by propidium iodide staining based flow cytometry (reference value: 64.79%); format: functional; conditions: time 4 day
SW1990 [30] = assay: Inhibition of colony formation in human SW1990 cells at 0.5 uM after 14 days in presence of 1.5 uM Olaparib by crystal violet staining based microscopic analysis; format: functional, cell-based; conditions: time 14.0 day
Mus musculus [31] = assay: Toxicity in BALB/c mouse xenografted with human SW1990 cells assessed as heart damage at 15 mg/kg, ip administered for 28 consecutive days in presence of 45 mg/kg Olaparib; format: organism-based; conditions: in vivo, 672 h, time 28 day
SW1990 [32] = assay: Inhibition of homologous recombinant repair in human SW1990 cells assessed as reduction in Rad51 expression at 4 uM after 4 days by Western blot analysis; format: functional, cell-based; conditions: time 4.0 day
SW1990 [33] = assay: Inhibition of homologous recombinant repair in human SW1990 cells assessed as reduction in FOXM1 expression at 4 uM after 4 days by Q-PCR analysis; format: functional, cell-based; conditions: time 4.0 day
SW1990 [34] = assay: Effect on cell cycle progression in human SW1990 cells assessed as reduction in Olaparib-induced PLK1 expression at 1 uM after 4 days in presence of Olaparib by Western blot analysis; format: functional, cell-based; conditions: time 4.0 day

**Q.** What does the source list for `CC[C@@H]1C(=O)N(C)c2cnc(N(C)c3ccc(-c4nc5c(C(N)=O)cccc5[nH]4)cc3OC)nc2N1C1CCCC1`?
**A.** Activity (SW1990 [1]): 4.56%; inhibition (SW1990 [2]): Active; inhibition (Mus musculus [3]): Active; Activity (SW1990 [4]): Active; Activity (Mus musculus [5]): Active; IC50 [6]: 1200 nM; inhibition (SW1990 [7]): Active; inhibition (SW1990 [8]): Active; Activity (SW1990 [9]): 13.22%; IC50 [10]: 75 nM; Activity (SW1990 [11]): Active; Activity (SW1990 [12]): Active; Activity (SW1990 [13]): 10.5%; Activity (SW1990 [14]): Active; Activity (SW1990 [15]): Active; Activity (SW1990 [16]): 74.76%; Activity (SW1990 [17]): Active; Activity (SW1990 [18]): Active; inhibition (SW1990 [19]): Active; Activity (SW1990 [20]): Active; Activity (SW1990 [21]): Active; Activity (SW1990 [22]): Active; Activity (Mus musculus [23]): Active

**Q.** With `Cc1sc2c(c1C)C(c1ccc(Cl)cc1)=N[C@@H](CC(=O)OC(C)(C)C)c1nnc(C)n1-2` as the compound, how does the Activity (SW1990 [24]) read?
**A.** Its Activity is 19.33%.

**Q.** And the Activity (Mus musculus [25])?
**A.** Its Activity is “Non-Toxic”.

**Q.** And the Activity (SW1990 [26])?
**A.** Its Activity is “Active”.

**Q.** What about the Activity (Mus musculus [27]) of the same compound?
**A.** Its Activity is “Non-Toxic”.

**Q.** What about the Activity (SW1990 [28]) of the same compound?
**A.** The Activity was 1.23%.

**Q.** What about the Activity (SW1990 [29]) of the same compound?
**A.** The Activity was 75.06%.

**Q.** And the inhibition (SW1990 [30])?
**A.** The inhibition was “Active”.

**Q.** What about the Activity (Mus musculus [31]) of the same compound?
**A.** The Activity was “Non-Toxic”.

**Q.** And the inhibition (SW1990 [32])?
**A.** The inhibition was “Active”.

**Q.** And the inhibition (SW1990 [33])?
**A.** The inhibition was “Active”.

**Q.** And the Activity (SW1990 [34])?
**A.** Its Activity is “Active”.
